# Key:
# Assay type in all cases: in vivo
# [1] = tested on: barnyardgrass (Echinochloa crus-galli); test: Test G Pre-Emergence Protocol; settings: Echinochloa crus-galli, pre-emergence, 312 h, evaluated after 13 days; for pest or weed control at 15.625 g/ha: 15.625 g ai/ha; for pest or weed control at 15.625 g/ha / pest or weed control at 250 g/ha: read-out: Barnyardgrass damage rating (100=total damage to plant; 0=no damage to plant); for pest or weed control at 62.5 g/ha: 62.5 g ai/ha, 100=total damage to plant, 0=no damage to plant, read-out: Barnyardgrass damage rating; for pest or weed control at 250 g/ha: 250 g ai/ha
# Method in brief: (§1)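 Pots of seeds in standard soil were grown for one day in a glasshouse (24/16 °C day/night, 14 h light, 65% humidity), then sprayed with compound in acetone/water 50:50 with 0.5% Tween 20 at 15.625, 62.5 or 250 g/ha. Damage was scored after 13 days on a 0 (none) to 100 (total) scale.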
# [2] = tested on: corn (Zea mays); test: Test G Pre-Emergence Protocol; settings: Zea mays, pre-emergence, 312 h, evaluated after 13 days; for plant injury at 15.625 g/ha: 15.625 g ai/ha; for plant injury at 15.625 g/ha / plant injury at 250 g/ha: read-out: Corn damage rating (100=total damage to plant; 0=no damage to plant); for plant injury at 62.5 g/ha: 62.5 g ai/ha, 100=total damage to plant, 0=no damage to plant, read-out: Corn damage rating; for plant injury at 250 g/ha: 250 g ai/ha
# Method in brief: as §1
# [3] = tested on: giant foxtail (Setaria faberi); test: Test G Pre-Emergence Protocol; settings: Setaria faberi, pre-emergence, 312 h, evaluated after 13 days; for pest or weed control at 15.625 g/ha: 15.625 g ai/ha; for pest or weed control at 15.625 g/ha / pest or weed control at 250 g/ha: read-out: Foxtail, Giant damage rating (100=total damage to plant; 0=no damage to plant); for pest or weed control at 62.5 g/ha: 62.5 g ai/ha, 100=total damage to plant, 0=no damage to plant, read-out: Foxtail, Giant damage rating; for pest or weed control at 250 g/ha: 250 g ai/ha
# Method in brief: as §1
# [4] = tested on: ivy-leaved morning glory (Ipomoea hederacea); test: Test G Pre-Emergence Protocol; settings: Ipomoea, pre-emergence, 312 h, evaluated after 13 days; for pest or weed control at 15.625 g/ha: 15.625 g ai/ha; for pest or weed control at 15.625 g/ha / pest or weed control at 250 g/ha: read-out: Morningglory, Ivy-leaved damage rating (100=total damage to plant; 0=no damage to plant); for pest or weed control at 62.5 g/ha: 62.5 g ai/ha, 100=total damage to plant, 0=no damage to plant, read-out: Morningglory, Ivy-leaved damage rating; for pest or weed control at 250 g/ha: 250 g ai/ha
# Method in brief: as §1
# [5] = tested on: redroot pigweed (Amaranthus retroflexus); test: Test G Pre-Emergence Protocol; settings: Amaranthus retroflexus, pre-emergence, 312 h, evaluated after 13 days; for pest or weed control at 15.625 g/ha: 15.625 g ai/ha; for pest or weed control at 15.625 g/ha / pest or weed control at 250 g/ha: read-out: Pigweed, Redroot damage rating (100=total damage to plant; 0=no damage to plant); for pest or weed control at 62.5 g/ha: 62.5 g ai/ha, 100=total damage to plant, 0=no damage to plant, read-out: Pigweed, Redroot damage rating; for pest or weed control at 250 g/ha: 250 g ai/ha
# Method in brief: as §1
# [6] = tested on: velvetleaf (Abutilon theophrasti); test: Test G Pre-Emergence Protocol; settings: Abutilon theophrasti, pre-emergence, 312 h, evaluated after 13 days; for pest or weed control at 15.625 g/ha: 15.625 g ai/ha; for pest or weed control at 15.625 g/ha / pest or weed control at 250 g/ha: read-out: Velvetleaf damage rating (100=total damage to plant; 0=no damage to plant); for pest or weed control at 62.5 g/ha: 62.5 g ai/ha, 100=total damage to plant, 0=no damage to plant, read-out: Velvetleaf damage rating; for pest or weed control at 250 g/ha: 250 g ai/ha
# Method in brief: as §1
# [7] = tested on: barnyardgrass (Echinochloa crus-galli); test: Test G Post-Emergence Protocol; settings: Echinochloa crus-galli, post-emergence, 312 h, read-out: Barnyardgrass damage rating; for pest or weed control at 15.625 g/ha: 15.625 g ai/ha, evaluated after 13 days (100=total damage to plant; 0=no damage to plant); for pest or weed control at 62.5 g/ha: 62.5 g ai/ha; for pest or weed control at 62.5 g/ha / pest or weed control at 250 g/ha: evaluated after 13 days, 100=total damage to plant, 0=no damage to plant; for pest or weed control at 250 g/ha: 250 g ai/ha
# Method in brief: (§2)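 Scores run 0 (no damage) to 100 (total damage) and were taken 13 days after spraying. Plants had been raised in pots for 8 days under glasshouse control (24/16 °C, 14 h photoperiod, 65% humidity) and then treated at 15.625, 62.5 or 250 g/ha.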
# [8] = tested on: corn (Zea mays); test: Test G Post-Emergence Protocol; settings: Zea mays, post-emergence, 312 h, read-out: Corn damage rating; for plant injury at 15.625 g/ha: 15.625 g ai/ha, evaluated after 13 days (100=total damage to plant; 0=no damage to plant); for plant injury at 62.5 g/ha: 62.5 g ai/ha; for plant injury at 62.5 g/ha / plant injury at 250 g/ha: evaluated after 13 days, 100=total damage to plant, 0=no damage to plant; for plant injury at 250 g/ha: 250 g ai/ha
# Method in brief: as §2
# [9] = tested on: giant foxtail (Setaria faberi); test: Test G Post-Emergence Protocol; settings: Setaria faberi, post-emergence, 312 h, read-out: Foxtail, Giant damage rating; for pest or weed control at 15.625 g/ha: 15.625 g ai/ha, evaluated after 13 days (100=total damage to plant; 0=no damage to plant); for pest or weed control at 62.5 g/ha: 62.5 g ai/ha; for pest or weed control at 62.5 g/ha / pest or weed control at 250 g/ha: evaluated after 13 days, 100=total damage to plant, 0=no damage to plant; for pest or weed control at 250 g/ha: 250 g ai/ha
# Method in brief: as §2
# [10] = tested on: ivy-leaved morning glory (Ipomoea hederacea); test: Test G Post-Emergence Protocol; settings: Ipomoea, post-emergence, 312 h, read-out: Morningglory, Ivy-leaved damage rating; for pest or weed control at 15.625 g/ha: 15.625 g ai/ha, evaluated after 13 days (100=total damage to plant; 0=no damage to plant); for pest or weed control at 62.5 g/ha: 62.5 g ai/ha; for pest or weed control at 62.5 g/ha / pest or weed control at 250 g/ha: evaluated after 13 days, 100=total damage to plant, 0=no damage to plant; for pest or weed control at 250 g/ha: 250 g ai/ha
# Method in brief: as §2
# [11] = tested on: redroot pigweed (Amaranthus retroflexus); test: Test G Post-Emergence Protocol; settings: Amaranthus retroflexus, post-emergence, 312 h, read-out: Pigweed, Redroot damage rating; for pest or weed control at 15.625 g/ha: 15.625 g ai/ha, evaluated after 13 days (100=total damage to plant; 0=no damage to plant); for pest or weed control at 62.5 g/ha: 62.5 g ai/ha; for pest or weed control at 62.5 g/ha / pest or weed control at 250 g/ha: evaluated after 13 days, 100=total damage to plant, 0=no damage to plant; for pest or weed control at 250 g/ha: 250 g ai/ha
# Method in brief: as §2
# [12] = tested on: velvetleaf (Abutilon theophrasti); test: Test G Post-Emergence Protocol; settings: Abutilon theophrasti, post-emergence, 312 h, read-out: Velvetleaf damage rating; for pest or weed control at 15.625 g/ha: 15.625 g ai/ha, evaluated after 13 days (100=total damage to plant; 0=no damage to plant); for pest or weed control at 62.5 g/ha: 62.5 g ai/ha; for pest or weed control at 62.5 g/ha / pest or weed control at 250 g/ha: evaluated after 13 days, 100=total damage to plant, 0=no damage to plant; for pest or weed control at 250 g/ha: 250 g ai/ha
# Method in brief: as §2
Compound,pest or weed control at 15.625 g/ha [1] [%],pest or weed control at 62.5 g/ha [1] [%],pest or weed control at 250 g/ha [1] [%],plant injury at 15.625 g/ha [2] [%],plant injury at 62.5 g/ha [2] [%],plant injury at 250 g/ha [2] [%],pest or weed control at 15.625 g/ha [3] [%],pest or weed control at 62.5 g/ha [3] [%],pest or weed control at 250 g/ha [3] [%],pest or weed control at 15.625 g/ha [4] [%],pest or weed control at 62.5 g/ha [4] [%],pest or weed control at 250 g/ha [4] [%],pest or weed control at 15.625 g/ha [5] [%],pest or weed control at 62.5 g/ha [5] [%],pest or weed control at 250 g/ha [5] [%],pest or weed control at 15.625 g/ha [6] [%],pest or weed control at 62.5 g/ha [6] [%],pest or weed control at 250 g/ha [6] [%],pest or weed control at 15.625 g/ha [7] [%],pest or weed control at 62.5 g/ha [7] [%],other results
COc1cc(C2CN(C)C(=O)C2C(=O)Nc2cccc(F)c2F)cc(Cl)c1OC (centres unmarked) [Compound 1704],40,70,80,0,50,80,50,80,80,0,0,30,0,20,0,0,0,10,40,70,pest or weed control at 250 g/ha [7]: 80%; plant injury at 15.625 g/ha [8]: 0%; plant injury at 62.5 g/ha [8]: 20%; plant injury at 250 g/ha [8]: 80%; pest or weed control at 15.625 g/ha [9]: 70%; pest or weed control at 62.5 g/ha [9]: 80%; pest or weed control at 250 g/ha [9]: 80%; pest or weed control at 15.625 g/ha [10]: 30%; pest or weed control at 62.5 g/ha [10]: 20%; pest or weed control at 250 g/ha [10]: 70%; pest or weed control at 15.625 g/ha [11]: 0%; pest or weed control at 62.5 g/ha [11]: 10%; pest or weed control at 250 g/ha [11]: 10%; pest or weed control at 15.625 g/ha [12]: 0%; pest or weed control at 62.5 g/ha [12]: 0%; pest or weed control at 250 g/ha [12]: 20%
COc1cc(C2CN(C)C(=O)C2C(=O)Nc2cccc(F)c2F)cc(F)c1F (centres unmarked) [Compound 1706],40,60,80,0,10,40,50,70,90,0,0,0,0,0,20,0,0,10,40,60,pest or weed control at 250 g/ha [7]: 80%; plant injury at 15.625 g/ha [8]: 0%; plant injury at 62.5 g/ha [8]: 0%; plant injury at 250 g/ha [8]: 70%; pest or weed control at 15.625 g/ha [9]: 70%; pest or weed control at 62.5 g/ha [9]: 80%; pest or weed control at 250 g/ha [9]: 80%; pest or weed control at 15.625 g/ha [10]: 20%; pest or weed control at 62.5 g/ha [10]: 0%; pest or weed control at 250 g/ha [10]: 60%; pest or weed control at 15.625 g/ha [11]: 0%; pest or weed control at 62.5 g/ha [11]: 10%; pest or weed control at 250 g/ha [11]: 20%; pest or weed control at 15.625 g/ha [12]: 0%; pest or weed control at 62.5 g/ha [12]: 20%; pest or weed control at 250 g/ha [12]: 20%
COc1c(C)cc(C2CN(C)C(=O)C2C(=O)Nc2cccc(F)c2F)cc1C (centres unmarked) [Compound 1707],70,80,90,20,80,80,80,90,90,0,10,30,20,20,40,10,10,60,70,70,pest or weed control at 250 g/ha [7]: 80%; plant injury at 15.625 g/ha [8]: 60%; plant injury at 62.5 g/ha [8]: 70%; plant injury at 250 g/ha [8]: 80%; pest or weed control at 15.625 g/ha [9]: 80%; pest or weed control at 62.5 g/ha [9]: 80%; pest or weed control at 15.625 g/ha [10]: 40%; pest or weed control at 62.5 g/ha [10]: 40%; pest or weed control at 250 g/ha [10]: 70%; pest or weed control at 15.625 g/ha [11]: 0%; pest or weed control at 62.5 g/ha [11]: 0%; pest or weed control at 250 g/ha [11]: 0%; pest or weed control at 15.625 g/ha [12]: 0%; pest or weed control at 62.5 g/ha [12]: 20%; pest or weed control at 250 g/ha [12]: 30%
